Assay results: US6979545B2, “Method for determining chemical reactivity” (Pharmacia & Upjohn Company, priority 2000, dated 2005)
Where two headings read alike, the source gives them in different places.

What was measured:
[1] = fluorescein-5-maleimide (FM)/GSH competition fluorescence test; assay type: physicochemical; conditions: for level of fluorescence, visual observation of the cuvette: compared to a standard without the compound for screening; for electrophilic properties (conclusion): from FM/GSH fluorescence
Procedure: A small aliquot of fluroescein-5-maleimide (FM) in dimethyl sulfoxide (DMSO) is added to a fluorometric cuvette containing 2 ml of phosphate buffered saline at a pH of 7.40. A test compound for screening in DMSO is added to the cuvette, as is a small aliquot of GSH solution. The mixture is exposed to light at 490 nm and emission is observed through a 530 nm bandpass filter. The color of the resulting mixture is observed and the amount of fluorescence is measured.

[2] = GSH reactivity screen (mercury orange fluorescence, 96-well); assay type: physicochemical; conditions: for potential reactivity using the GSH reactivity screen: residual GSH by HgO fluorescence, electrophile criterion e.g. <20% GSH remaining
Procedure: The test compounds as listed in Table 2 to be screened are dissolved in dimethyl sulfoxide (DMSO) to a final concentration of 10 mM, and 2 μL is transferred to the wells of a polypropylene 96-well microtiter plate. […] Mercury orange (HgO) stock solution (470 μM) is prepared in acetone and stored at 4° C. […] A 48 μL aliquot of the GSH working solution is pipetted into the 96-well tray containing the test compounds to yield a final concentration of 200 μM GSH. The reaction of the test compound with the GSH is allowed to proceed for 1 h at room temperature after which time an aliquot of HgO is added to each reaction well to yield a final concentration of 50 μM GSH/HgO. […] Assay linearity is investigated by preparing a GSH standard curve in the concentration range 0 to 50 μM (final concentration). Routine sample analysis is achieved using a Biomek 2000 biorobotic system configured with six 96-well plates and 2 reagent reservoirs.
Compounds are then identified as elelctrophiles based upon a predetermined criteria of GSH consumption (e.g., <20% GSH remaining).

[3] = phosphate buffered saline pH 7.40, excitation 490 nm, emission 530 nm
[4] = test compound with 200 μM GSH, 1 h at room temperature, no metabolic activation, no glutathione transferase
[5] = test compound with 200 μM GSH, 1 h at room temperature

result in the GSH screen (in words) [2, 4] | SMILES | other results
 | O=C1C=CC(=O)N1c1cccc(C(F)(F)F)c1 | level of fluorescence, visual observation of the cuvette [1]: does not appreciably change; electrophilic properties (conclusion) [1]: not having electrophilic properties; reactivity of this compound toward GSH as compared to the FM standard [1, 3]: 2.95 times less
 | CC(=O)NC1=C(Cl)C(=O)c2ccccc2C1=O | level of fluorescence, visual observation of the cuvette [1]: appreciably reduced; electrophilic properties (conclusion) [1]: having electrophilic properties; reactivity of this compound toward GSH as compared to the FM standard (in words) [1, 3]: slightly greater
 | O=[N+]([O-])c1ccc(Cl)cc1 [1-Chloro-4-nitrobenzene] | result in the GSH screen (in words) [2]: non-reactive
reactive | O=[N+]([O-])c1csc(Br)n1 [2-Bromo-4-nitrothiazole] | potential reactivity using the GSH reactivity screen [2, 5]: R
 | N#Cc1ccc(Cl)cc1 [4-Chlorobenzonitrile] | result in the GSH screen (in words) [2]: non-reactive
non-reactive | Nc1ccc(Cl)c([N+](=O)[O-])c1 [4-chloro-3-nitroaniline] | 
non-reactive | COc1ccc(Cl)c([N+](=O)[O-])c1 [4-chloro-3-nitroanisole] | 
non-reactive | N#Cc1ccc(Cl)c([N+](=O)[O-])c1 [4-chloro-3-nitrobenzonitrile] | 
non-reactive | Cc1cc(C(C)(C)C)c(O)c(C(C)(C)C)c1 [Butylated hydroxytoluene] | 
 | ClC(Cl)Cl [Chloroform] | result in the GSH screen (in words) [2]: non-reactive
non-reactive | O=C(O)Cc1ccccc1Nc1c(Cl)cccc1Cl [Diclofenac] | 
non-reactive | O=C(CCCN1CCC(O)(c2ccc(Cl)cc2)CC1)c1ccc(F)cc1 [Haloperidol] | 
reactive | O=C1C=C(c2ccccc2)C(=O)N1 [Phenylmaleimide] | potential reactivity using the GSH reactivity screen [2, 5]: R
non-reactive | O=C1NC(=O)C(c2ccccc2)(c2ccccc2)N1 [Phenytoin] | 
non-reactive | CC/C(=C(\c1ccccc1)c1ccc(OCCN(C)C)cc1)c1ccccc1 [Tamoxifen] | 
non-reactive | CC(=O)Nc1ccc(O)cc1 [acetaminophen] | 

SMILES | result in the GSH screen (in words) [2, 4] | other results
O=[N+]([O-])c1ccc(Cl)c([N+](=O)[O-])c1 [1-chloro-2,4-dinitrobenzene] | non-reactive | 
O=[N+]([O-])c1cc(O)ccc1Cl [4-chloro-3-nitrophenol] | non-reactive | 
c1ccccc1 [Benzene] | non-reactive | 
COc1ccc(O)c(C(C)(C)C)c1 [Butylated hydroxyanisole] | non-reactive | 
Cc1ccccc1 [Toluene] | non-reactive | 
C/C=C/C=O [trans Crotonaldehyde] | reactive | potential reactivity using the GSH reactivity screen [2, 5]: R
